The text below walks through data of patent publication US12624044B2, “SMARCA degraders and uses thereof” (Kymera Therapeutics, Inc., priority 2019, dated 2026).

Some results are limits rather than exact numbers.

In assay [1] the target is T1, SMARCA2 (Homo sapiens, UniProt P51531). In words: MSD SMARCA2 degradation in A549 cell line. The format is cell-based. To be noted: 24 h; for Dmax: A549, A549 cells; for DC50: A549 cells, read-out: SMARCA2 MSD A549 degradation 24 h: Average external-Abs DC50. As to the method:
Cells were seeded into 96-well plates (A549 cells: 2×10^4 cells/well/100 ul media) abd incubated overnight. The next day, 200 nl compound were added into the intermediate plate with Echo (Labcyte 550) from source plate containing a 3-fold serial dilution from top concentration of 1 mM. The culture medium was changed with 80 ul of fresh medium and 80 ul of 2× compound solution was added into the well to make a final concentration of 1000 nM, 333.3 nM, 111.1 nM, 37.04 nM, 12.35 nM, 4.115 nM, 1.372 nM, 0.457 nM, 0.152 nM and 0 nM (DMSO). The wells were mixed and then incubated for 24 hours. The media was aspirated from the cultures and 60 ul pre-chilled PIPA lysis buffer (Boston BioProducts BP-115D) with protease/phosphatase inhibitor (Roche 05892791001/Roche 04906837001) was added into the well to lyze the cells for 20 minutes at 4° C. The MSD plate (L15XA) was coated with 40 ul cell lysate and incubated at 4° C. overnight. The next day, the plate was washed three times with TBST (CST #9997S), 150 ul/well. The MSD plates was blocked with 150 ul blocking buffer per well and shaked for 1 hr at RT, 600 rpm. The blocking buffer was 3% Blocker A (MSD, R93BA-4) in TBST. The MSD plate was washed three times with 150 ul/well of TBST and 25 ul/well of detection antibody (Rabbit anti-SMARCA2/BRM antibody, 100 μg/ml, ab223735) was added at final concentration of 1 ug/ml diluted in 1% Blocking buffer and shaken for 1 hour at RT, 600 rpm. The MSD plate was washed three times with 150 ul/well of TBST and 25 ul/well of SULFO-TAG anti-rabbit antibody (MSD, R32AB-1) was added at final concentration of 1 ug/ml diluted in 1% Blocking buffer and shaken for 1 hour at RT, 600 rpm. The MSD plate was washed three times with 150 ul/well of TBST and 150 ul/well of 2×MSD reading buffer diluted from 4× (MSD, R92TC-2) with water was added. Lastly, the MSD instrument was read.
The letter codes for the percentage of SMARCA2 degradation after 24 hours (Dmax %) include: A (>90% degradation), B (>70-90% degradation), C (50-70% degradation), and D (<50% degradation).

Assay [2] has as its target T1, SMARCA2. In words: MSD SMARCA2 degradation in NCI-H1299 cell line (24 h). The format is cell-based. On the set-up: HC: NCI-H1299 cells treated with DMSO; host or cells: NCI-H1299. To be noted: for Dmax: NCI-H1299, NCI-H1299 cells; for DC50: NCI-H1299 cells, read-out: SMARCA2 MSD H1299 degradation 24 h: External Abs-DC50. Summed up:
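NCI-H1299 cells treated 24 h with a 3-fold, 9-point compound dilution series, then lysed in RIPA with protease inhibitor. SMARCA2 in lysate-coated MSD plates detected with rabbit anti-SMARCA2 (0.3 ug/ml) and SULFO-TAG secondary. Relative SMARCA2 level normalized between DMSO-treated H1299 cells and SMARCA2-negative A2780 cells; Dmax % binned A–D.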

T1 sequence (P51531 whole entry): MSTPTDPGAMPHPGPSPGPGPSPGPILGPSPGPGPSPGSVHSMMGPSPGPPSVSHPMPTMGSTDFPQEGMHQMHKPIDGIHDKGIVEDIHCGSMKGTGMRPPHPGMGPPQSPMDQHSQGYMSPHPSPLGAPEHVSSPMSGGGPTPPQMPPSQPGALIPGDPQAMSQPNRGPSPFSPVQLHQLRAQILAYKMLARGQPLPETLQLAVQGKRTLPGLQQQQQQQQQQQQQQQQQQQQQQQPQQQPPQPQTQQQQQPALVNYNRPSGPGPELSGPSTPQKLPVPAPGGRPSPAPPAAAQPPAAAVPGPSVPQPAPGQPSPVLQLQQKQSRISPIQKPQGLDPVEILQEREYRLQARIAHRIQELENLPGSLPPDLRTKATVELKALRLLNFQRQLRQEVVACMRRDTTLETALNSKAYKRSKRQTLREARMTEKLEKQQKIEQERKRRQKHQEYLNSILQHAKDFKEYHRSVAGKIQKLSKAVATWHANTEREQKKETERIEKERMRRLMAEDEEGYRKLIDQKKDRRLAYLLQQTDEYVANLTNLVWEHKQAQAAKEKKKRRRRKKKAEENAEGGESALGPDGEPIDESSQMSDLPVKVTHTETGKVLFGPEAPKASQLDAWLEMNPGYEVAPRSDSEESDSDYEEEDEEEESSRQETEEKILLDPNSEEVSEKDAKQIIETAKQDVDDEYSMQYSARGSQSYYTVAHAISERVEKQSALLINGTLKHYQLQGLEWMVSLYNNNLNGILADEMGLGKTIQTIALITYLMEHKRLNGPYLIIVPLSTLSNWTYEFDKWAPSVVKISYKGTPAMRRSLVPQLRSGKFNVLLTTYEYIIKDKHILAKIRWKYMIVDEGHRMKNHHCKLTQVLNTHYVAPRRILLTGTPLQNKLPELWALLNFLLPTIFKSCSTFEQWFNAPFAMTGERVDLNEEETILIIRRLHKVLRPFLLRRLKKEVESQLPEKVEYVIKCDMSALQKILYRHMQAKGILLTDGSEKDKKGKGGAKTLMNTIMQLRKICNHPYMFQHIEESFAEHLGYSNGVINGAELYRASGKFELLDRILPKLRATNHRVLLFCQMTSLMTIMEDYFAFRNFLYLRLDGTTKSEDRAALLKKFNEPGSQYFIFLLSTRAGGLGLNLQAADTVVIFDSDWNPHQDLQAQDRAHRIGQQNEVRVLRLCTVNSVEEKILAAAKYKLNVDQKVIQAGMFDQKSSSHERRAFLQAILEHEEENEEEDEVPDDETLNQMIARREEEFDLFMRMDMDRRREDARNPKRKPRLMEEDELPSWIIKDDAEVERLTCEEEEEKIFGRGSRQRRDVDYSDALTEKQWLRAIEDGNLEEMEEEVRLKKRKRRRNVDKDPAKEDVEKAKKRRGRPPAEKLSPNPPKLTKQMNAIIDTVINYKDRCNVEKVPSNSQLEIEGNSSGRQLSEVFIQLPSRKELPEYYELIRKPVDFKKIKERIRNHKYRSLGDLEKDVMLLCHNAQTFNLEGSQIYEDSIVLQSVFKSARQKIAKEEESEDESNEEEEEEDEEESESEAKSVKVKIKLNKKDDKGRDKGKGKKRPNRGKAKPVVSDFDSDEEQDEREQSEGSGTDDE

Broadly, the Dmax is the greatest extent of degradation seen. The low end stands for shallow degradation, the high end for deep degradation. Usually DC50 stands for the concentration giving 50% degradation. Turning to `Cc1ncsc1-c1ccc(CNC(=O)[C@@H]2C[C@@H](O)CN2C(=O)[C@@H](NC(=O)C2(F)CC2)C2CCC(N(C)CCCC#Cc3cnc(N4C5CCC4CN(c4cc(-c6ccccc6O)nnc4N)C5)nc3)CC2)cc1` (stereo partly shown) [I-517], on SMARCA2 [1], the Dmax was 50 to 70% and the DC50 fell in the range of 501 to 1000 nM.

Regarding `Cc1ncsc1-c1ccc(CNC(=O)[C@@H]2C[C@@H](O)CN2C(=O)[C@@H](NC(=O)[C@H]2C[C@@H](CN3CCC(c4cnc(N5C6CCC5CN(c5cc(-c7ccccc7O)nnc5N)C6)nc4)CC3)C2)C(C)(C)C)cc1` [I-374], at SMARCA2 [1], the Dmax was in the range of 70 to 90% and the DC50 is 100 to 500 nM.

As to `Cc1ncsc1-c1ccc(CNC(=O)[C@@H]2C[C@@H](O)CN2C(=O)[C@@H](NC(=O)[C@H]2CC3(C[C@H](CN4CCC(c5cnc(N6C7CCC6CN(c6cc(-c8ccccc8O)nnc6N)C7)nc5)CC4)C3)C2)C(C)(C)C)cc1` (stereo partly shown) [I-426], at SMARCA2 [1], the Dmax was more than 90% and the DC50 was in the range of 100 to 500 nM.

On to `Cc1ncsc1-c1ccc(CNC(=O)[C@@H]2C[C@@H](O)CN2C(=O)[C@@H](NC(=O)CCCCCCCNCc2cccc(C#Cc3cc(NC(=O)Nc4cc(F)ncc4CO)ccn3)c2)C(C)(C)C)cc1` [I-490], for which, at SMARCA2 [1], the Dmax is less than 50% and the DC50 is more than 1000 nM.

Regarding `Cc1ncsc1-c1ccc(CNC(=O)[C@@H]2C[C@@H](O)CN2C(=O)[C@@H](NC(=O)C23CCC(CN(C)Cc4cnc(N5C6CCC5CN(c5cc(-c7ccccc7O)nnc5N)C6)nc4)(CC2)CC3)C(C)(C)C)cc1` [I-429], on SMARCA2 [1], the Dmax lay in the range of 70 to 90% and the DC50 lay in the range of 100 to 500 nM.

Turning to `Cc1ncsc1-c1ccc(CNC(=O)[C@@H]2C[C@@H](O)CN2C(=O)[C@@H](NC(=O)C2CC=C(c3nccc(N4C5CCC4CN(c4cc(-c6ccccc6O)nnc4N)C5)n3)CC2)C(C)(C)C)cc1` (stereo partly shown) [I-418], at SMARCA2 [1], the Dmax was more than 90% and the half-maximal degradation concentration (DC50) was in the range of 100 to 500 nM.

Consider `Cc1ncsc1-c1ccc(CNC(=O)[C@@H]2C[C@@H](O)CN2C(=O)[C@@H](NC(=O)[C@H]2CC[C@@H](CCCCCN3CCC(Cn4cc(-c5cc(-c6ccccc6O)nnc5N)cn4)CC3)CC2)C(C)(C)C)cc1` [I-377], for which, at SMARCA2 [1], the Dmax fell in the range of 70 to 90% and the DC50 was in the range of 100 to 500 nM.

On to `Cc1ncsc1-c1ccc(CNC(=O)[C@@H]2C[C@@H](O)CN2C(=O)[C@@H](NC(=O)N2CCC3(CCC(c4cnc(N5C6CCC5CN(c5cc(-c7ccccc7O)nnc5N)C6)nc4)CC3)CC2)C(C)(C)C)cc1` [I-510], for which, on SMARCA2 [1], the Dmax was more than 90% and the DC50 fell in the range of 100 to 500 nM.

For the compound `Cc1ncsc1-c1ccc(CNC(=O)[C@@H]2C[C@@H](O)CN2C(=O)[C@@H](NC(=O)[C@H]2CC[C@H](c3ccc(CN4CCC(Cn5cc(-c6cc(-c7ccccc7O)nnc6N)cn5)CC4)cc3)CC2)C(C)(C)C)cc1` [I-380], at SMARCA2 [1], the Dmax is more than 90% and the DC50 is 100 to 500 nM.

`Cc1ncsc1-c1ccc(CNC(=O)[C@@H]2C[C@@H](O)CN2C(=O)[C@@H](NC(=O)C2CC3(C2)CC(N(C)Cc2cnc(N4C5CCC4CN(c4cc(-c6ccccc6O)nnc4N)C5)nc2)C3)C(C)(C)C)cc1` (stereo partly shown) [I-416]: on SMARCA2 [1], the Dmax is more than 90% and the 50% degradation concentration (DC50) is 100 to 500 nM.

For the compound `Cn1c(=O)n(C2CCC(=O)NC2=O)c2cccc(CN3CCC(OC4CCN(Cc5cccc(C#Cc6cc(NC(=O)Nc7cc(F)ncc7CO)ccn6)c5)CC4)CC3)c21` (stereo not shown) [I-313], at SMARCA2 [1], the Dmax was less than 50% and the DC50 is more than 1000 nM.

Regarding `Cn1c(=O)n(C2CCC(=O)NC2=O)c2cccc(CN3CCC4(CCN(Cc5cccc(C#Cc6cc(NC(=O)Nc7cc(F)ncc7CO)ccn6)c5)CC4)CC3)c21` (stereo not shown) [I-319], on SMARCA2 [1], the Dmax is less than 50% and the DC50 is more than 1000 nM.

In the case of `Cn1c(=O)n(C2CCC(=O)NC2=O)c2ccc(CCCCCCCCCNCc3cccc(C#Cc4cc(NC(=O)Nc5cc(F)ncc5CO)ccn4)c3)cc21` (stereo not shown) [I-302, 1-(2-((3-(((9-(1-(2,6-dioxopiperidin-3-yl)-3-methyl-2-oxo-2,3-dihydro-1H-benzo[d]imidazol-5-yl)nonyl)amino)methyl)phenyl)ethynyl)pyridin-4-yl)-3-(2-fluoro-5-(hydroxymethyl)pyridin-4-yl)urea], at SMARCA2 [1], the Dmax is less than 50% and the DC50 was more than 1000 nM.

Take `Nc1nnc(-c2ccccc2O)cc1N1CC2CCC(C1)N2c1ncc(C2CCN(CCCCOc3ccc(Oc4ccc(N(Cc5ccccc5)C(=O)CCl)cc4)cc3)CC2)cn1` [I-530]: on SMARCA2 [1], the Dmax is less than 50% and the DC50 was more than 1000 nM.

In the case of `Cc1ncsc1-c1ccc(CNC(=O)[C@@H]2C[C@@H](O)CN2C(=O)[C@@H](NC(=O)CCN2CCC(Cn3cc(-c4cc(-c5ccccc5O)nnc4N)cn3)CC2)C(C)(C)C)cc1` [I-466], at SMARCA2 [1], the Dmax is less than 50% and the DC50 was more than 1000 nM.

Regarding `Cc1ncsc1-c1ccc(CNC(=O)[C@@H]2C[C@@H](O)CN2C(=O)[C@@H](NC(=O)[C@H]2C[C@H](CN3CCC(c4cnc(N5C6CCC5CN(c5cc(-c7ccccc7O)nnc5N)C6)nc4)CC3)C2)C(C)(C)C)cc1` [I-376], on SMARCA2 [1], the Dmax lay in the range of 50 to 70% and the 50% degradation concentration (DC50) was 501 to 1000 nM.

For `Cc1ncsc1-c1ccc(CNC(=O)[C@@H]2C[C@@H](O)CN2C(=O)C(NC(=O)C2(F)CC2)C2CCC(N(C)CCCCCc3cnc(N4C5CCC4CN(c4cc(-c6ccccc6O)nnc4N)C5)nc3)CC2)cc1` (stereo partly shown) [I-519], on SMARCA2 [1], the Dmax was less than 50% and the DC50 was more than 1000 nM.

On to `Cc1ncsc1-c1ccc(CNC(=O)[C@@H]2C[C@@H](O)CN2C(=O)[C@@H](NC(=O)CCCCCN2CCC(Cn3cc(-c4cc(-c5ccccc5O)nnc4N)cn3)CC2)C(C)(C)C)cc1` [I-215, (2S,4R)-1-((S)-2-(6-(4-((4-(3-amino-6-(2-hydroxyphenyl)pyridazin-4-yl)-1H-pyrazol-1-yl)methyl)piperidin-1-yl)hexanamido)-3,3-dimethylbutanoyl)-4-hydroxy-N-(4-(4-methylthiazol-5-yl)benzyl)pyrrolidine-2-carboxamide], for which, on SMARCA2 [2], the Dmax is less than 50% and the DC50 was more than 1000 nM.

As for `Cn1c(=O)n(C2CCC(=O)NC2=O)c2ccc(CCCCOc3cccc(CN4CCN(c5cc(-c6ccccc6O)nnc5N)CC4)c3)cc21` (stereo not shown) [I-101], at SMARCA2 [2], the Dmax is less than 50% and the DC50 is more than 1000 nM.

`COc1cc(C(=O)NCCCCCCCCCCCNCc2ccc(N3CCN(c4cc(-c5ccccc5O)nnc4N)CC3)cc2)ccc1NC(=O)[C@@H]1N[C@@H](CC(C)(C)C)[C@](C#N)(c2ccc(Cl)cc2F)[C@H]1c1cccc(Cl)c1F` [I-234]: on SMARCA2 [2], the Dmax lay in the range of 50 to 70% and the DC50 was more than 1000 nM.

`Cn1c(=O)n(C2CCC(=O)NC2=O)c2ccc(CCCCCOc3ccc(CN4CCN(c5cc(-c6ccccc6O)nnc5N)CC4)cc3)cc21` (stereo not shown) [I-85]: at SMARCA2 [2], the Dmax is less than 50% and the 50% degradation concentration (DC50) was more than 1000 nM.

Regarding `Cn1c(=O)n(C2CCC(=O)NC2=O)c2ccc(CCCOCCOCCOCCOCCNC(=O)CCCCCCCCOc3ccnc(N4C[C@H]5C[C@@H]4CN5/C=C/C(=O)c4ccccc4O)c3)cc21` (stereo partly shown) [I-21], at SMARCA2 [2], the DC50 is more than 1000 nM.

Consider `CN1C(=O)CCC(n2c(=O)n(C)c3cc(CCCCCCCc4cnc(N5C6CCC5CN(c5cc(-c7ccccc7O)nnc5N)C6)nc4)ccc32)C1=O` (stereo not shown) [I-187], for which, at SMARCA2 [2], the Dmax is less than 50% and the DC50 is more than 1000 nM.

For the compound `Cn1c(=O)n(C2CCC(=O)NC2=O)c2ccc(CCCCCCCCc3cn(Cc4cccc(N5C[C@H]6C[C@@H]5CN6/C=C/C(=O)c5ccccc5O)n4)nn3)cc21` (stereo partly shown) [I-48], on SMARCA2 [2], the Dmax is less than 50% and the DC50 is more than 1000 nM.

For the compound `O=C1CCC(N2C(=O)c3cccc(NCCOCc4cn(Cc5cccc(N6C[C@H]7C[C@@H]6CN7/C=C/C(=O)c6ccccc6O)n5)nn4)c3C2=O)C(=O)N1` (stereo partly shown) [I-38], on SMARCA2 [2], the DC50 is more than 1000 nM.

Turning to `Cn1c(=O)n(C2CCC(=O)NC2=O)c2cccc(CCCO[C@H]3C[C@H](N(C)Cc4ccc(N5CCN(c6cc(-c7ccccc7O)nnc6N)CC5)cc4)C3)c21` (stereo partly shown) [I-121], at SMARCA2 [2], the maximal degradation (Dmax) was 70 to 90% and the DC50 was less than 100 nM.

As to `CN(CCOCCCc1ccc2c(c1)n(C)c(=O)n2C1CCC(=O)NC1=O)Cc1ccc(N2CCN(c3cc(-c4ccccc4O)nnc3N)CC2)cc1` (stereo not shown) [I-125], on SMARCA2 [2], the Dmax is less than 50% and the DC50 was more than 1000 nM.
